Source: paper PMC5116409 (Nanomedicine : nanotechnology, biology, and medicine, 2016)

Legend:
[1] = biological target: T1, HIV-1 reverse transcriptase Wild type (Human immunodeficiency virus type 1 group M subtype B, UniProt P03366); assay: biochemical; conditions: RNA-dependent DNA polymerization, IC50, Wild type RT; From DMSO stock solution
[2] = biological target: T2, HIV-1 reverse transcriptase L100I (Human immunodeficiency virus type 1 group M subtype B, UniProt P03366, L699I); assay: RNA-dependent DNA polymerization by recombinant HIV-1 RT; assay type: biochemical
[3] = biological target: T3, HIV-1 reverse transcriptase K103N (Human immunodeficiency virus type 1 group M subtype B, UniProt P03366, K702N); assay: as above; assay type: biochemical
[4] = biological target: T4, HIV-1 reverse transcriptase V106A (Human immunodeficiency virus type 1 group M subtype B, UniProt P03366, V705A); assay: as above; assay type: biochemical
[5] = biological target: T5, HIV-1 reverse transcriptase Y181C (Human immunodeficiency virus type 1 group M subtype B, UniProt P03366, Y780C); assay: as above; assay type: biochemical
[6] = biological target: T6, HIV-1 reverse transcriptase G190A (Human immunodeficiency virus type 1 group M subtype B, UniProt P03366, G789A); assay: as above; assay type: biochemical
[7] = biological target: T7, HIV-1 reverse transcriptase K103N+Y181C (Human immunodeficiency virus type 1 group M subtype B, UniProt P03366, K702N/Y780C); assay: as above; assay type: biochemical; conditions: From DMSO stock solution
[8] = biological target: T1, HIV-1 reverse transcriptase Wild type; assay: DNA-dependent DNA polymerization by recombinant HIV-1 RT; assay type: biochemical; conditions: From DMSO stock solution
[9] = biological target: T2, HIV-1 reverse transcriptase L100I; assay: as above; assay type: biochemical
[10] = biological target: T3, HIV-1 reverse transcriptase K103N; assay: as above; assay type: biochemical
[11] = biological target: T4, HIV-1 reverse transcriptase V106A; assay: as above; assay type: biochemical
[12] = biological target: T5, HIV-1 reverse transcriptase Y181C; assay: as above; assay type: biochemical
[13] = biological target: T6, HIV-1 reverse transcriptase G190A; assay: as above; assay type: biochemical
[14] = biological target: T7, HIV-1 reverse transcriptase K103N+Y181C; assay: as above; assay type: biochemical; conditions: From DMSO stock solution
[15] = toxicity to cells, WST-1 test; assay type: cell-based; conditions: human

Cc1cc(C)cc(C(=O)c2cc(C)ccc2OCCn2ccc(=O)[nH]c2=O)c1 [Z007, 1-(2-(2-(3,5-dimethylbenzoyl)-4-methylphenoxy)ethyl)pyrimidine-2,4(1H,3H)-dione]
IC50 [1]: 50 ± 20 µM | IC50 ([2]; Complex with HC-PGC (M5P21OL)): > 100 µM | IC50 ([2]; From DMSO stock solution): 100 ± 30 µM | IC50 ([3]; Complex with HC-PGC (M5P21OL)): > 100 µM | IC50 ([3]; From DMSO stock solution): > 100 µM | IC50 [4]: > 100 µM | IC50 ([5]; Complex with HC-PGC (M5P21OL)): > 100 µM | IC50 ([5]; From DMSO stock solution): > 100 µM | IC50 ([6]; Complex with HC-PGC (M5P21OL)): > 100 µM | IC50 ([6]; From DMSO stock solution): > 100 µM | IC50 [7]: > 100 µM | IC50 [8]: 40 ± 10 µM | IC50 ([9]; Complex with HC-PGC (M5P21OL)): > 100 µM | IC50 ([9]; From DMSO stock solution): > 100 µM | IC50 ([10]; Complex with HC-PGC (M5P21OL)): > 100 µM | IC50 ([10]; From DMSO stock solution): > 100 µM | IC50 [11]: > 100 µM | IC50 ([12]; Complex with HC-PGC (M5P21OL)): > 100 µM | IC50 ([12]; From DMSO stock solution): > 100 µM | IC50 ([13]; Complex with HC-PGC (M5P21OL)): > 100 µM | IC50 ([13]; From DMSO stock solution): > 100 µM | IC50 [14]: > 100 µM | CC50 at 4 h [15]: > 50 µM

O=C(c1cc(Cl)cc(Cl)c1)c1cc(Br)ccc1OCCn1ccc(=O)[nH]c1=O [Z011, 1-(2-(4-bromo-2-(3,5-dichlorobenzoyl)phenoxy)ethyl)pyrimidine-2,4(1H,3H)-dione]
IC50 [8]: 0.7 ± 0.1 µM | IC50 ([9]; Complex with HC-PGC (M5P21OL)): > 100 µM | IC50 ([9]; From DMSO stock solution): 1.8 ± 0.6 µM | IC50 ([10]; Complex with HC-PGC (M5P21OL)): > 100 µM | IC50 ([10]; From DMSO stock solution): 6 ± 1 µM | IC50 [11]: > 100 µM | IC50 ([12]; Complex with HC-PGC (M5P21OL)): 22 ± 5 µM | IC50 ([12]; From DMSO stock solution): 1.4 ± 0.5 µM | IC50 ([13]; Complex with HC-PGC (M5P21OL)): 2.6 ± 0.7 µM | IC50 ([13]; From DMSO stock solution): 1.6 ± 0.3 µM | IC50 [14]: 10 ± 3 µM | CC50 at 4 h [15]: > 50 µM

Cc1cc(C)cc(C(=O)c2cc(Cl)ccc2OCCn2c3c(c(=O)[nH]c2=O)CCC3)c1 [Z107, 1-(2-(4-chloro-2-(3,5-dimethylbenzoyl)phenoxy)ethyl)-1,5,6,7-tetrahydro-2H-cyclopenta[d]pyrimidine-2,4(3H)-dione]
IC50 [1]: 3 ± 1 µM | IC50 ([2]; Complex with HC-PGC (M5P21OL)): 15 ± 4 µM | IC50 ([2]; From DMSO stock solution): 10 ± 3 µM | IC50 ([3]; Complex with HC-PGC (M5P21OL)): 100 ± 30 µM | IC50 ([3]; From DMSO stock solution): 40 ± 10 µM | IC50 [4]: > 100 µM | IC50 ([5]; Complex with HC-PGC (M5P21OL)): 40 ± 10 µM | IC50 ([5]; From DMSO stock solution): 5 ± 2 µM | IC50 ([6]; Complex with HC-PGC (M5P21OL)): 70 ± 20 µM | IC50 ([6]; From DMSO stock solution): 35 ± 10 µM | IC50 [7]: 80 ± 30 µM | IC50 [8]: 0.7 ± 0.2 µM | IC50 ([9]; Complex with HC-PGC (M5P21OL)): 1.5 ± 0.2 µM | IC50 ([9]; From DMSO stock solution): 3 ± 1 µM | IC50 ([10]; Complex with HC-PGC (M5P21OL)): 95 ± 15 µM | IC50 ([10]; From DMSO stock solution): 70 ± 2 µM | IC50 [11]: > 100 µM | IC50 ([12]; Complex with HC-PGC (M5P21OL)): 1.9 ± 0.5 µM | IC50 ([12]; From DMSO stock solution): 6 ± 2 µM | IC50 ([13]; Complex with HC-PGC (M5P21OL)): 0.9 ± 0.3 µM | IC50 ([13]; From DMSO stock solution): 45 ± 15 µM | IC50 [14]: 50 ± 20 µM | CC50 at 4 h [15]: > 50 µM
